Patent US7968607B2, “Skin pore minimizers and skin elasticity improvers” (Koa Corporation, priority 2000, dated 2011)
Where a name gives a salt, the structure may show the parent alone.

Columns and labels:
[1] = system: human skin fibroblasts (derived from a human fore skin); assay: Collagen gel tightening promoting ability (fibroblast-embedded collagen gel, dermis model); type: cell-based; settings: Homo sapiens, Skin fibroblast, 48 hours, relative volume, control = 100%
Description: Measurement was conducted on the ability to promote the tightening of a fibroblast-embedded collagen gel as a dermis model. The collagen gel was prepared following the procedure reported in a publication [J. Cell Science, 102, 315 (1992) or J. Invest. Dermatol., 93, 792 (1989)]. Described specifically, a solution of HEPES (250 mM) in a 0.05 N sodium hydroxide solution, a 5-fold concentrate of DMEM (“GIBCO DMEM”, low glucose), FCS (2%, Fetal Calf Serum) and purified water were added under ice cooling to a collagen gel solution (product of Nitta Gelatin Inc., “type 1-A” (3.0 mg/mL, pH=3)), and finally, a suspension of human skin fibroblasts (derived from a human fore skin) was added. After the resulting mixture was thoroughly stirred to eliminate bubbles, 600 μL per well was added to 24-well dishes, followed by immediate warming at 37° C. in an incubator to effect gelation. Three to four hours later, 1 mL of serum-free DMEM medium was added to each of the wells, and the gels were separated at peripheries thereof from the corresponding dishes and were brought into a floating state. Eighteen hours after that, the medium was replaced with serum-free DMEM media which contained 100 to 10 μM of test substances, respectively, and incubation was conducted further for 48 hours.
Volume measurement of the gels was conducted by a weight measuring method similar to that reported in the publication [J. Cell Science, 102, 315 (1992)]. Described specifically, subsequent to immobilization with 10% formalin (4° C., 24 hours), the surface tension of water was reduced by the addition of Triton X100 (product of Wako Pure Chemical Industries) (1%), and the weights were measured.
Measurement results of relative volumes for the respective compounds as calculated supposing that the volume of the control was 100% are presented in Table 3.

[2] = system: dorsal skin of HR rats (WBN/ILA-HT); assay: Rat skin elasticity improving (tightening) effect, cutometer; type: in vivo; settings: for Ur/Uf / Ue (instantaneous elastic displacement) / Uf (final displacement) / Ur (instantaneous recovery displacement): 2% solution in 10% ethanol, two weeks; for Ur/Uf: cutometer; for Ue (instantaneous elastic displacement) / Uf (final displacement) / Ur (instantaneous recovery displacement): cutometer 100 hpa, 5 s suction, 2 s release; for skin elasticity / skin tightening effect: when applied, from Table 4 and Table 5
Description: Onto the entire dorsal skins of HR rats (WBN/ILA-HT, 7 weeks old), 2% solutions of Compounds 1 and 4 (solvent: 10% ethanol) were applied in the form of spray, respectively, once or twice a day, 7 to 8 times a week in total, in an amount of 0.7 mL each time. As a control, 10% ethanol solution was used. Two weeks later, the skin elasticity of the skin at a central dorsal part at a site slightly rightward of the median line of each HR rat was measured under Nembutal anesthesia by using a cutometer (“CUTOMETER SEM474”, Courage+Khazaka Electronic GmbH). The measurement was conducted by setting the suction pressure, suction time and release time at 100 hpa, 5 seconds and 2 seconds, and an instantaneous elastic displacement Ue, an instantaneous recovery displacement Ur and a final displacement Uf were recorded. Based on changes in the skin elasticity, skin tightening effect was determined. Ue is an index of elasticity, while Uf is an index of softness and malleability. Both of these values decrease on the face or the like upon aging, and also decrease when the skin is in a swollen state. Increases in these values, therefore, can be taken as an indication of a state that the skin is in a tightened state with its softness, melleability and elasticity having been increased further. Ur is also an index of elasticity, and decreases when the skin is in a saggy state or a swollen state. Similarly, an increase in this value serves as an indication of a state that the skin is in a tightened state with its elasticity and tightness having been increased further. Further, Ur/Uf is also an index of the elasticity of the skin, and like Ur, decreases when the skin becomes saggy or is swollen. Moreover, Ur/Uf is known to decrease upon aging irrespective of the face or body site, and is an important index of sagginess.

[3] = system: dorsal skin of HR rats (WBN/ILA-HT); assay: as above; type: in vivo; settings: 2% solution in 10% ethanol sprayed on dorsal skin, 0.7 mL, 7 to 8 times a week, two weeks
[4] = system: human skin fibroblasts (derived from a human fore skin); assay: Collagen gel tightening promoting ability (fibroblast-embedded collagen gel, dermis model); type: cell-based; settings: 48 hours, relative volume, control = 100%

Compound	activity at 10 µM [1]	activity at 30 µM [1]	Ur/Uf [2]	Ue (instantaneous elastic displacement) [2]	Uf (final displacement) [2]	Ur (instantaneous recovery displacement) [2]	skin elasticity / skin tightening effect [2]	Skin thickness (mm) [3]	activity at 3 µM [4]	activity at 15 µM ([1]; 15 μM, read-out: Average gel volume)	activity at 50 µM ([1]; 50 μM, read-out: Average gel volume)
CCCCCCCCCCCCOCC(O)COS(=O)(=O)[O-].[Na+] (stereo not shown) [Compound 1, 1-dodecylglycerol-3-sulfate sodium salt]	93%	85%	0.540	0.113	0.159	0.834	increased the skin elasticity and exhibited skin tightening effect	0.820 mm			
CC(C)CCCCCCCCCCCCCCCOCC(O)COS(=O)(=O)O (stereo not shown) [Compound 3, 1-isostearylglycerol-3-sulfate sodium salt]	74%	95%							86%		
CCCCCCCCCCOCC(O)COP(=O)([O-])[O-].[Na+].[Na+] (stereo not shown) [Compound 4, 1-decylglycerol-3-phosphate disodium salt]			0.401	0.225	0.275	0.109	increased the skin elasticity and exhibited skin tightening effect	0.725 mm		96%	88%
